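Assay format: 96-well plates, 48-hour exposure. Here, GI50 denotes the concentration required for 50% inhibition of growth.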 Calls of active or inactive are those of the source. Rule as the data show it: active = GI50 up to about 1.1 µM and inactive = higher.
Tests used:
Assay in all cases: DTP human tumour cell line panel, 48 h
786-0 = system: 786-0
A498 = system: A498
A549 = system: A549
ACHN = system: ACHN
COLO 205 = system: COLO 205
DU-145 = system: DU-145
EKVX = system: EKVX
HCC 2998 = system: HCC 2998
HCT-116 = system: HCT-116
HCT-15 = system: HCT-15
HOP-62 = system: HOP-62
HT-29 = system: HT-29
Hs-578T = system: Hs-578T
IGROV-1 = system: IGROV-1
KM12 = system: KM12
M14 = system: M14
MCF7 = system: MCF7
MDA-MB-231 = system: MDA-MB-231
MDA-MB-435 = system: MDA-MB-435
MDA-N = system: MDA-N
NCI-H226 = system: NCI-H226
NCI-H23 = system: NCI-H23
NCI-H460 = system: NCI-H460
NCI/ADR-RES = system: NCI/ADR-RES
OVCAR-3 = system: OVCAR-3
OVCAR-4 = system: OVCAR-4
OVCAR-5 = system: OVCAR-5
OVCAR-8 = system: OVCAR-8
RXF 393 = system: RXF 393
SF-268 = system: SF-268
SF-295 = system: SF-295
SF-539 = system: SF-539
SK-MEL-28 = system: SK-MEL-28
SK-MEL-2 = system: SK-MEL-2
SK-MEL-5 = system: SK-MEL-5
SK-OV-3 = system: SK-OV-3
SN12C = system: SN12C
SNB-19 = system: SNB-19
SNB-75 = system: SNB-75
SW-620 = system: SW-620
T47D = system: T47D
TK-10 = system: TK-10
U-251 = system: U-251
UACC-257 = system: UACC-257
UACC-62 = system: UACC-62
UO-31 = system: UO-31
CAKI-1 = system: CAKI-1
CCRF-CEM = system: CCRF-CEM
HL-60 = system: HL-60
HOP-92 = system: HOP-92
K562 = system: K562
LOX IMVI = system: LOX IMVI
MOLT-4 = system: MOLT-4
Malme-3M = system: Malme-3M
PC-3 = system: PC-3
RPMI-8226 = system: RPMI-8226
SR = system: SR

O=C(Cc1ccccc1)NN1C(=O)/C(=C\c2cccc(O)c2)S/C1=N\c1ccccc1
GI50 (786-0): > 100 µM (inactive) | GI50 (A498): > 100 µM (inactive) | GI50 (A549): > 100 µM (inactive) | GI50 (ACHN): > 100 µM (inactive) | GI50 (COLO 205): > 100 µM (inactive) | GI50 (DU-145): > 100 µM (inactive) | GI50 (EKVX): > 100 µM (inactive) | GI50 (HCC 2998): > 100 µM (inactive) | GI50 (HCT-116): > 100 µM (inactive) | GI50 (HCT-15): > 100 µM | GI50 (HOP-62): > 100 µM (inactive) | GI50 (HT-29): > 100 µM (inactive) | GI50 (Hs-578T): > 100 µM (inactive) | GI50 (IGROV-1): > 100 µM (inactive) | GI50 (KM12): > 100 µM (inactive) | GI50 (M14): > 100 µM (inactive) | GI50 (MCF7): > 100 µM (inactive) | GI50 (MDA-MB-231): 45.8 µM (inactive) | GI50 (MDA-MB-435): > 100 µM (inactive) | GI50 (MDA-N): > 100 µM (inactive) | GI50 (NCI-H226): > 100 µM (inactive) | GI50 (NCI-H23): > 100 µM (inactive) | GI50 (NCI-H460): > 100 µM (inactive) | GI50 (NCI/ADR-RES): > 100 µM (inactive) | GI50 (OVCAR-3): 83.4 µM (inactive) | GI50 (OVCAR-4): > 100 µM (inactive) | GI50 (OVCAR-5): > 100 µM (inactive) | GI50 (OVCAR-8): > 100 µM (inactive) | GI50 (RXF 393): > 100 µM (inactive) | GI50 (SF-268): > 100 µM (inactive) | GI50 (SF-295): > 100 µM (inactive) | GI50 (SF-539): > 100 µM (inactive) | GI50 (SK-MEL-28): > 100 µM (inactive) | GI50 (SK-MEL-2): > 100 µM (inactive) | GI50 (SK-MEL-5): > 100 µM (inactive) | GI50 (SK-OV-3): > 100 µM (inactive) | GI50 (SN12C): > 100 µM (inactive) | GI50 (SNB-19): > 100 µM (inactive) | GI50 (SNB-75): > 100 µM (inactive) | GI50 (SW-620): > 100 µM (inactive) | GI50 (T47D): 57.3 µM (inactive) | GI50 (TK-10): > 100 µM (inactive) | GI50 (U-251): > 100 µM (inactive) | GI50 (UACC-257): > 100 µM (inactive) | GI50 (UACC-62): > 100 µM (inactive) | GI50 (UO-31): 55.8 µM (inactive)

CCOC(=O)c1cnc2oc3ccc(O)cc3c2c1-c1ccccc1
GI50 (786-0): 58.3 µM (inactive) | GI50 (A498): > 100 µM (inactive) | GI50 (A549): 32.4 µM (inactive) | GI50 (ACHN): 20.9 µM (inactive) | GI50 (CAKI-1): > 100 µM (inactive) | GI50 (CCRF-CEM): 16.4 µM (inactive) | GI50 (COLO 205): 28.5 µM (inactive) | GI50 (DU-145): > 100 µM (inactive) | GI50 (EKVX): 57.3 µM (inactive) | GI50 (HCC 2998): > 100 µM (inactive) | GI50 (HCT-116): 57.8 µM (inactive) | GI50 (HCT-15): 26.7 µM | GI50 (HL-60): 14.6 µM (inactive) | GI50 (HOP-92): 16.3 µM (inactive) | GI50 (HT-29): 71.6 µM (inactive) | GI50 (Hs-578T): 20.6 µM (inactive) | GI50 (K562): 17.6 µM (inactive) | GI50 (LOX IMVI): 21.6 µM (inactive) | GI50 (M14): 81.3 µM (inactive) | GI50 (MCF7): 44.7 µM (inactive) | GI50 (MDA-MB-231): 16.8 µM (inactive) | GI50 (MDA-MB-435): 19.2 µM (inactive) | GI50 (MDA-N): 52.7 µM (inactive) | GI50 (MOLT-4): 7.4 µM (inactive) | GI50 (Malme-3M): 23 µM (inactive) | GI50 (NCI-H226): 32.2 µM (inactive) | GI50 (NCI-H23): 32.7 µM (inactive) | GI50 (NCI-H460): 13.2 µM (inactive) | GI50 (OVCAR-3): > 100 µM (inactive) | GI50 (OVCAR-4): 24.4 µM (inactive) | GI50 (OVCAR-5): > 100 µM (inactive) | GI50 (OVCAR-8): 12.7 µM (inactive) | GI50 (PC-3): 18 µM (inactive) | GI50 (RPMI-8226): 8.73 µM (inactive) | GI50 (RXF 393): 41.1 µM (inactive) | GI50 (SF-295): 37.2 µM (inactive) | GI50 (SF-539): 17.3 µM (inactive) | GI50 (SK-MEL-28): 36.6 µM (inactive) | GI50 (SK-MEL-2): 15.1 µM (inactive) | GI50 (SK-MEL-5): 29.2 µM (inactive) | GI50 (SK-OV-3): 15.8 µM (inactive) | GI50 (SN12C): 37.9 µM (inactive) | GI50 (SNB-19): 52.4 µM (inactive) | GI50 (SR): 22.6 µM (inactive) | GI50 (SW-620): > 100 µM (inactive) | GI50 (T47D): > 100 µM (inactive) | GI50 (TK-10): > 100 µM (inactive) | GI50 (U-251): 44.8 µM (inactive) | GI50 (UACC-257): > 100 µM (inactive) | GI50 (UACC-62): 12.8 µM (inactive)

COc1ccc2c(c[n+](C)c3c4cc5c(cc4ccc23)OCO5)c1OC
GI50 (DU-145): > 100 µM (inactive) | GI50 (Hs-578T): 80.4 µM (inactive) | GI50 (MCF7): 9.55 µM (inactive) | GI50 (MDA-MB-231): > 100 µM (inactive) | GI50 (MDA-MB-435): 19.3 µM (inactive) | GI50 (MDA-N): 16.7 µM (inactive) | GI50 (NCI/ADR-RES): 34.8 µM (inactive) | GI50 (PC-3): 41.7 µM (inactive) | GI50 (RXF 393): > 100 µM (inactive) | GI50 (T47D): > 100 µM (inactive)

— ChEMBL document CHEMBL1201862, “PubChem BioAssay data set” (2004)
